From ChEMBL document CHEMBL1201862, “PubChem BioAssay data set” (2004)
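Protocol summary: plate cells (96-well), add compound at 5 concentrations, incubate 48 h, interpolate endpoints linearly. GI50 marks 50% less growth.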 Activity calls are given as the source filed them. No stated cut-off is given here; in the data, active = GI50 up to about 1.1 µM and inactive = higher.

What was measured:
Experiment in all cases: growth of human tumour cells (NCI), 48 h
786-0 = tested on: 786-0
A498 = tested on: A498
A549 = tested on: A549
ACHN = tested on: ACHN
BT-549 = tested on: BT-549
CAKI-1 = tested on: CAKI-1
CCRF-CEM = tested on: CCRF-CEM
COLO 205 = tested on: COLO 205
DU-145 = tested on: DU-145
EKVX = tested on: EKVX
HCT-116 = tested on: HCT-116
HCT-15 = tested on: HCT-15
HL-60 = tested on: HL-60
HOP-62 = tested on: HOP-62
HOP-92 = tested on: HOP-92
HT-29 = tested on: HT-29
Hs-578T = tested on: Hs-578T
IGROV-1 = tested on: IGROV-1
K562 = tested on: K562
KM12 = tested on: KM12
LOX IMVI = tested on: LOX IMVI
M14 = tested on: M14
MCF7 = tested on: MCF7
MDA-MB-231 = tested on: MDA-MB-231
MDA-MB-435 = tested on: MDA-MB-435
MDA-N = tested on: MDA-N
MOLT-4 = tested on: MOLT-4
Malme-3M = tested on: Malme-3M
NCI-H226 = tested on: NCI-H226
NCI-H23 = tested on: NCI-H23
NCI-H460 = tested on: NCI-H460
NCI-H522 = tested on: NCI-H522
NCI/ADR-RES = tested on: NCI/ADR-RES
OVCAR-3 = tested on: OVCAR-3
OVCAR-4 = tested on: OVCAR-4
OVCAR-5 = tested on: OVCAR-5
OVCAR-8 = tested on: OVCAR-8
PC-3 = tested on: PC-3
RPMI-8226 = tested on: RPMI-8226
RXF 393 = tested on: RXF 393
SF-268 = tested on: SF-268
SF-295 = tested on: SF-295
SF-539 = tested on: SF-539
SK-MEL-28 = tested on: SK-MEL-28
SK-MEL-2 = tested on: SK-MEL-2
SK-MEL-5 = tested on: SK-MEL-5
SK-OV-3 = tested on: SK-OV-3
SN12C = tested on: SN12C
SNB-19 = tested on: SNB-19
SNB-75 = tested on: SNB-75
SR = tested on: SR
SW-620 = tested on: SW-620
T47D = tested on: T47D
TK-10 = tested on: TK-10
U-251 = tested on: U-251
UACC-257 = tested on: UACC-257
UACC-62 = tested on: UACC-62
UO-31 = tested on: UO-31

In the case of O=[N+]([O-])c1ccc(C[S+]([O-])Cc2ccccc2)cc1 (stereo unspecified), the GI50 (786-0) is reported as > 100 µM (inactive), the GI50 (A498) is reported as > 100 µM (inactive) and the GI50 (A549) is reported as > 100 µM (inactive). The GI50 (ACHN) was > 100 µM (inactive), the GI50 (BT-549) was > 100 µM (inactive) and the GI50 (CAKI-1) was > 100 µM (inactive). The GI50 (CCRF-CEM) was > 100 µM (inactive), the GI50 (COLO 205) was > 100 µM (inactive) and the GI50 (DU-145) was > 100 µM (inactive). For the same molecule, the GI50 (EKVX) was > 100 µM (inactive), the GI50 (HCT-116) was > 100 µM (inactive) and the GI50 (HCT-15) was over 100 µM. For the same molecule, the GI50 (HL-60) was > 100 µM (inactive), the GI50 (HOP-62) was > 100 µM (inactive) and the GI50 (HOP-92) was > 100 µM (inactive). For the same molecule, the GI50 (HT-29) was > 100 µM (inactive), the GI50 (Hs-578T) was > 100 µM (inactive) and the GI50 (IGROV-1) was > 100 µM (inactive). The GI50 (K562) was > 100 µM (inactive), the GI50 (KM12) was > 100 µM (inactive) and the GI50 (LOX IMVI) was > 100 µM (inactive). For the same molecule, the GI50 (M14) was > 100 µM (inactive), the GI50 (MCF7) was > 100 µM (inactive) and the GI50 (MDA-MB-231) was > 100 µM (inactive). The GI50 (MDA-MB-435) was > 100 µM (inactive), the GI50 (MDA-N) was > 100 µM (inactive) and the GI50 (MOLT-4) was > 100 µM (inactive). The GI50 (Malme-3M) was > 100 µM (inactive), the GI50 (NCI-H226) was > 100 µM (inactive) and the GI50 (NCI-H23) was > 100 µM (inactive). For the same molecule, the GI50 (NCI-H460) was > 100 µM (inactive), the GI50 (NCI-H522) was > 100 µM (inactive) and the GI50 (NCI/ADR-RES) was > 100 µM (inactive). For the same molecule, the GI50 (OVCAR-3) was > 100 µM (inactive), the GI50 (OVCAR-4) was > 100 µM (inactive) and the GI50 (OVCAR-5) was > 100 µM (inactive). For the same molecule, the GI50 (OVCAR-8) was > 100 µM (inactive), the GI50 (PC-3) was > 100 µM (inactive) and the GI50 (RPMI-8226) was > 100 µM (inactive). For the same molecule, the GI50 (RXF 393) was > 100 µM (inactive), the GI50 (SF-268) was > 100 µM (inactive) and the GI50 (SF-295) was > 100 µM (inactive). The GI50 (SF-539) was > 100 µM (inactive), the GI50 (SK-MEL-28) was > 100 µM (inactive) and the GI50 (SK-MEL-2) was > 100 µM (inactive). For the same molecule, the GI50 (SK-MEL-5) was > 100 µM (inactive), the GI50 (SK-OV-3) was > 100 µM (inactive) and the GI50 (SN12C) was > 100 µM (inactive). The GI50 (SNB-19) was > 100 µM (inactive), the GI50 (SNB-75) was 39.9 µM (inactive) and the GI50 (SR) was > 100 µM (inactive). For the same molecule, the GI50 (SW-620) was > 100 µM (inactive), the GI50 (T47D) was > 100 µM (inactive) and the GI50 (TK-10) was > 100 µM (inactive). The GI50 (U-251) was > 100 µM (inactive), the GI50 (UACC-257) was > 100 µM (inactive) and the GI50 (UACC-62) was > 100 µM (inactive). For the same molecule, the GI50 (UO-31) was > 100 µM (inactive).

With O=C(O)C1CCCN1Cc1c[nH]c2ccccc12 (stereo unspecified) the GI50 (786-0) was > 100 µM (inactive), the GI50 (A498) was > 100 µM (inactive) and the GI50 (A549) was > 100 µM (inactive). For the same molecule, the GI50 (ACHN) was > 100 µM (inactive), the GI50 (BT-549) was > 100 µM (inactive) and the GI50 (CAKI-1) was > 100 µM (inactive). For the same molecule, the GI50 (CCRF-CEM) was > 100 µM (inactive), the GI50 (COLO 205) was > 100 µM (inactive) and the GI50 (DU-145) was > 100 µM (inactive). The GI50 (EKVX) was > 100 µM (inactive), the GI50 (HCT-116) was > 100 µM (inactive) and the GI50 (HCT-15) was over 100 µM. For the same molecule, the GI50 (HL-60) was > 100 µM (inactive), the GI50 (HOP-62) was > 100 µM (inactive) and the GI50 (HOP-92) was > 100 µM (inactive). The GI50 (HT-29) was > 100 µM (inactive), the GI50 (Hs-578T) was > 100 µM (inactive) and the GI50 (IGROV-1) was > 100 µM (inactive). For the same molecule, the GI50 (K562) was > 100 µM (inactive), the GI50 (KM12) was > 100 µM (inactive) and the GI50 (LOX IMVI) was > 100 µM (inactive). For the same molecule, the GI50 (M14) was > 100 µM (inactive), the GI50 (MCF7) was > 100 µM (inactive) and the GI50 (MDA-MB-231) was > 100 µM (inactive). The GI50 (MDA-MB-435) was > 100 µM (inactive), the GI50 (MDA-N) was > 100 µM (inactive) and the GI50 (MOLT-4) was > 100 µM (inactive). The GI50 (Malme-3M) was > 100 µM (inactive), the GI50 (NCI-H226) was > 100 µM (inactive) and the GI50 (NCI-H23) was > 100 µM (inactive). The GI50 (NCI-H460) was > 100 µM (inactive), the GI50 (NCI-H522) was > 100 µM (inactive) and the GI50 (NCI/ADR-RES) was > 100 µM (inactive). For the same molecule, the GI50 (OVCAR-3) was > 100 µM (inactive), the GI50 (OVCAR-4) was > 100 µM (inactive) and the GI50 (OVCAR-5) was > 100 µM (inactive). For the same molecule, the GI50 (OVCAR-8) was > 100 µM (inactive), the GI50 (PC-3) was > 100 µM (inactive) and the GI50 (RPMI-8226) was > 100 µM (inactive). For the same molecule, the GI50 (RXF 393) was > 100 µM (inactive), the GI50 (SF-268) was > 100 µM (inactive) and the GI50 (SF-295) was > 100 µM (inactive). The GI50 (SF-539) was > 100 µM (inactive), the GI50 (SK-MEL-28) was > 100 µM (inactive) and the GI50 (SK-MEL-2) was > 100 µM (inactive). The GI50 (SK-MEL-5) was > 100 µM (inactive), the GI50 (SK-OV-3) was > 100 µM (inactive) and the GI50 (SN12C) was > 100 µM (inactive). For the same molecule, the GI50 (SNB-19) was > 100 µM (inactive), the GI50 (SNB-75) was > 100 µM (inactive) and the GI50 (SR) was > 100 µM (inactive). For the same molecule, the GI50 (SW-620) was > 100 µM (inactive), the GI50 (T47D) was > 100 µM (inactive) and the GI50 (TK-10) was > 100 µM (inactive). The GI50 (U-251) was > 100 µM (inactive), the GI50 (UACC-257) was > 100 µM (inactive) and the GI50 (UACC-62) was > 100 µM (inactive). For the same molecule, the GI50 (UO-31) was > 100 µM (inactive).
